{
  "source": "paper PMC5870190",
  "about": "“A three-in-one-bullet for oesophageal cancer: replication fork collapse, spindle attachment failure and enhanced radiosensitivity generated by a ruthenium(II) metallo-intercalator” (Chemical Science, 2017)",
  "key": {"OE21 cells [1]": {"tested_on": "OE21 cells", "experiment": "DNA fibre assay (replication fork progression)", "assay_type": "cell-based, human", "conditions": "Ru1 21 μM or dppz 7 μM during second (IdU) pulse, 30 min", "description": "DNA fibre assay. The DNA fibre assay was performed as described previously.5 Briefly, OE21 cells were labelled with 30 µM CldU for 30 mins and then 250 µM IdU for an additional 30 mins. Either Ru1 (21 µM) or dppz (7 µM) was added during the second (IdU) nucleotide step (30 mins). DNA replication was terminated using ice-cold PBS and cells lysed (200 mM Tris-HCl pH 7.4, 50 mM EDTA and 0.5% SDS). DNA fibres were spread onto glass slides, fixed with methanol:acetic acid (3:1) and denatured with 2.5 M HCl. After blocking with 2% BSA, fibres were stained with anti-rat and anti-mouse 5-bromo-2′- deoxyuridine (BrdU) that specifically recognise either CldU (Abcam, dilution 1:500) or IdU (BD Sciences, 1:100). Anti-rat Cy3 (Jackson Immuno Research, 1:300) and anti-mouse Alexa-488 (Molecular Probes, 1:300) were used as the respective secondary antibodies. CldU- and IdU-labelled tracts were visualised using a Leica DMRB microscope with a DFC360FX camera and tract length measured by ImageJ software. Statistical analysis was performed by GraphPad Prism software using an unpaired t-test.\nWestern blotting. Treated samples were washed with cold PBS and lysed in RIPA (radioimmunoprecipitation assay) buffer containing protease inhibitors (10 μg/mL leupeptin, 2 μg/mL pepstatin, 50 μg/mL antipain, 2 μg/mL aprotinin, 20 μg/mL chyprostatin, 2 μg/mL benzamidine, 1 mM phenylmethanesulfonyl fluoride) and phosphatase inhibitors (50 mM NaF, 1 mM […]\nBis-Tris gels and LDS-PAGE. Gels were transferred onto nitrocellulose membrane and probed with primary antibodies in 5% BSA (bovine serum albumin) solutions at the following dilutions: 1/1000 dilution for majority of Cell Signaling antibodies and γH2AX. 1/500 for anti-p-ATR and anti-cleaved caspase 3. 1/200 anti-Chk1. 1/5000-1/10,000 anti- α-tubulin or β-actin.\nReactions were visualised with a suitable secondary antibody conjugated with horseradish peroxidase (1/5000 dilution, Thermo). […]"}, "OE21 cells [2]": {"tested_on": "OE21 cells", "experiment": "Cell-cycle analysis by flow cytometry", "assay_type": "cell-based, human", "conditions": "OE21, 20 μM, 24 h", "description": "phototoxic contribution to bio-activity. Doxorubicin (Sigma) was prepared in doubly-distilled water (10 mg/mL, 17.4 mM).\n[Ru(phen)2(dppz)]2+ (2 mM) was prepared in doubly-distilled water.\nSub-cellular fractionation. OE21 or OE33 cells were treated in 12 well plates, washed with cold PBS (2x2 mls) and nuclear and cytosol fractions obtained using the Nuclei EZ Lysis kit (Sigma). Briefly, cells were washed with acidified PBS (pH 2.5) to remove the membrane-bound fraction and 0.4 ml EZ lysis buffer was added. Cells were detached by scraping, collected into eppendorfs, vortexed briefly and left for 5 minutes on ice. Samples were centrifuged (500g, 5 mins) and the supernatant (cytosol fraction) aspirated. The pellet (nuclear fraction) was re-suspended in 200 µl RIPA buffer. […] Ruthenium content was determined by ICP-MS analysis as described in a recent […]\nDNA fibre assay. […] CldU- and IdU-labelled tracts were visualised using a Leica DMRB microscope with a DFC360FX camera and tract length measured by ImageJ software. […]\nWestern blotting. […] Protein content was determined by BCA assay. […]\nAnnexinV staining. […] This was incubated for 15 mins at room temperature, 400 µl binding buffer added and analysed by flow cytometry (FL1 and FL3 channels for FITC and PI respectively). […]"}},
  "data": [
    {"substance": "[Ru(phen)2(tpphz)]^2+ [Ru1]", "values": [
      {"measurement": "increase in completely stalled/terminated replication forks (CldU tract only) compared to mock-treated", "setting": "OE21 cells [1]", "value": 1.7, "unit": "fold"},
      {"measurement": "increase in G2/M phase cells compared to control", "setting": "OE21 cells [2]", "value": "two-fold"}
    ]}
  ]
}
